Reference: ChEMBL document CHEMBL4177710, “Bisindolylmethane thiosemicarbazides as potential inhibitors of urease: Synthesis and molecular modeling studies” (Bioorg Med Chem, 2018)

Biological target: Urease (Canavalia ensiformis, UniProt P07374)
Assay: Inhibition of jack bean urease assessed as reduction in ammonia production using urea as substrate after 15 mins by indophenol method

Urease, sequence (P07374 whole entry): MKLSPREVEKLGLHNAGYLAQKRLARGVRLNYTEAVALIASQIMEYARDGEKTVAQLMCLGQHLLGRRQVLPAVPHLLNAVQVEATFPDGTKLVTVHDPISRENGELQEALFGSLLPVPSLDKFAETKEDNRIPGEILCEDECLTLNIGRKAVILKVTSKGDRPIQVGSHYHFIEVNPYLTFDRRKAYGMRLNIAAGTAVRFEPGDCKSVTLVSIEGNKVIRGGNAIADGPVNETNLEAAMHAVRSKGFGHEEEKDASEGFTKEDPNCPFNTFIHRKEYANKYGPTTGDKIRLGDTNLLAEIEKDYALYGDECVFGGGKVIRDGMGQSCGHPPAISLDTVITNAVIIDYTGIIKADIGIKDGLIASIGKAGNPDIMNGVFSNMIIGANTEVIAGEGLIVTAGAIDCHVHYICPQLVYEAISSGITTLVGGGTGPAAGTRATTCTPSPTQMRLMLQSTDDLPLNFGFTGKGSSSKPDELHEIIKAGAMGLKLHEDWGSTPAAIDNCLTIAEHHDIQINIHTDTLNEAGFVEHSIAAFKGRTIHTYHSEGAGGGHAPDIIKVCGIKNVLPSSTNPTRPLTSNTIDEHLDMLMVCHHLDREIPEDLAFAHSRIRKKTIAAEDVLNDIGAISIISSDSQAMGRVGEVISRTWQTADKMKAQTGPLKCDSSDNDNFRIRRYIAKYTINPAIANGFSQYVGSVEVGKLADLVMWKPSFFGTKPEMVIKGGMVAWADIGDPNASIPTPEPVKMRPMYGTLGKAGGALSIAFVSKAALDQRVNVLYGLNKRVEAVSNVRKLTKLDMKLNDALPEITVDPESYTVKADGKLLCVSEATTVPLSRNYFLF

Row | Compound | IC50 [µM]
1 | Cc1ccc(C(c2c[nH]c3ccc(C(=O)NNC(=S)Nc4ccc([N+](=O)[O-])cc4)cc23)c2c[nH]c3ccc(C(=O)NNC(=S)Nc4ccc([N+](=O)[O-])cc4)cc23)cc1 | 9.5
2 | COc1cccc(NC(=S)NNC(=O)c2ccc3[nH]cc(C(c4ccc(C)cc4)c4c[nH]c5ccc(C(=O)NNC(=S)Nc6cccc(OC)c6)cc45)c3c2)c1 | 12.1
3 | Cc1ccc(C(c2c[nH]c3ccc(C(=O)NNC(=S)NC45CC6CC(CC(C6)C4)C5)cc23)c2c[nH]c3ccc(C(=O)NNC(=S)NC45CC6CC(CC(C6)C4)C5)cc23)cc1 (stereo not drawn) | 18.5
4 | Cc1ccc(C(c2c[nH]c3ccc(C(=O)NNC(=S)Nc4ccccc4C)cc23)c2c[nH]c3ccc(C(=O)NNC(=S)Nc4ccccc4C)cc23)cc1 | 3.3
5 | Cc1ccc(C(c2c[nH]c3ccc(C(=O)NNC(=S)Nc4ccccc4Br)cc23)c2c[nH]c3ccc(C(=O)NNC(=S)Nc4ccccc4Br)cc23)cc1 | 2.5
6 | Cc1ccc(C(c2c[nH]c3ccc(C(=O)NNC(=S)Nc4ccc(C(F)(F)F)cc4)cc23)c2c[nH]c3ccc(C(=O)NNC(=S)Nc4ccc(C(F)(F)F)cc4)cc23)cc1 | 0.5
7 | Cc1ccc(C(c2c[nH]c3ccc(C(=O)NNC(=S)Nc4cccc(C)c4)cc23)c2c[nH]c3ccc(C(=O)NNC(=S)Nc4cccc(C)c4)cc23)cc1 | 5.1
8 | Cc1ccc(C(c2c[nH]c3ccc(C(=O)NNC(=S)Nc4ccc(Cl)cc4)cc23)c2c[nH]c3ccc(C(=O)NNC(=S)Nc4ccc(Cl)cc4)cc23)cc1 | 2.75
9 | COc1ccccc1NC(=S)NNC(=O)c1ccc2[nH]cc(C(c3ccc(C)cc3)c3c[nH]c4ccc(C(=O)NNC(=S)Nc5ccccc5OC)cc34)c2c1 | 8.4
10 | Cc1ccc(C(c2c[nH]c3ccc(C(=O)NNC(=S)Nc4ccc(F)cc4)cc23)c2c[nH]c3ccc(C(=O)NNC(=S)Nc4ccc(F)cc4)cc23)cc1 | 1.1
11 | Cc1ccc(C(c2c[nH]c3ccc(C(=O)NNC(=S)Nc4cccc(Br)c4)cc23)c2c[nH]c3ccc(C(=O)NNC(=S)Nc4cccc(Br)c4)cc23)cc1 | 1.8
12 | Cc1ccc(C(c2c[nH]c3ccc(C(=O)NNC(=S)Nc4cccc(F)c4)cc23)c2c[nH]c3ccc(C(=O)NNC(=S)Nc4cccc(F)c4)cc23)cc1 | 0.98
13 | Cc1ccc(C(c2c[nH]c3ccc(C(=O)NNC(=S)Nc4ccc(Cl)c(Cl)c4)cc23)c2c[nH]c3ccc(C(=O)NNC(=S)Nc4ccc(Cl)c(Cl)c4)cc23)cc1 | 0.14
14 | Cc1ccc(C(c2c[nH]c3ccc(C(=O)NNC(=S)Nc4cccc([N+](=O)[O-])c4)cc23)c2c[nH]c3ccc(C(=O)NNC(=S)Nc4cccc([N+](=O)[O-])c4)cc23)cc1 | 7.6
15 | Cc1ccc(C(c2c[nH]c3ccc(C(=O)NNC(=S)Nc4ccc(Br)cc4)cc23)c2c[nH]c3ccc(C(=O)NNC(=S)Nc4ccc(Br)cc4)cc23)cc1 | 1.3
16 | Cc1ccc(NC(=S)NNC(=O)c2ccc3[nH]cc(C(c4ccc(C)cc4)c4c[nH]c5ccc(C(=O)NNC(=S)Nc6ccc(C)cc6)cc45)c3c2)cc1 | 4.2
17 | Cc1ccc(C(c2c[nH]c3ccc(C(=O)NNC(=S)Nc4ccccc4Cl)cc23)c2c[nH]c3ccc(C(=O)NNC(=S)Nc4ccccc4Cl)cc23)cc1 | 1.2
18 | Cc1ccc(C(c2c[nH]c3ccc(C(=O)NNC(=S)Nc4ccccc4F)cc23)c2c[nH]c3ccc(C(=O)NNC(=S)Nc4ccccc4F)cc23)cc1 | 0.8
